Reference: patent US20230265151A1, “GIP/GLP1 CO-AGONIST COMPOUNDS” (priority 2020, published 2023)
Read-outs that look alike come from different tables or passages of the source. *1 amine or outer side, *2 acyl side, *3 side chain or, on linkers, in order; H or OH if unused. Where a SMILES comes first, the peptide text is derived from it. Side-chain parts run from the residue outwards. [ ]: non-standard residue; d: D form. The star is where a group is joined. αMePhe(2-F) = C[C@](N)(Cc1ccccc1F)C(=O)O; γGlu = O=C(O)[C@H](CCC(=O)[*:2])N[*:1]; C14 diacid = O=C(O)CCCCCCCCCCCCC(=O)*; αMeY = C[C@](N)(Cc1ccc(O)cc1)C(=O)O; αMeL = CC(C)C[C@](C)(N)C(=O)O; Orn = NCCC[C@H](N)C(=O)O; AEEA = NCCOCCOCC(=O)O; Aib = CC(C)(N)C(=O)O

Assays:
Format in all cases: cell-based
hGCGR = target: T1, hGCGR (Homo sapiens, UniProt P47871); experiment: Functional cAMP formation (HTRF) in HEK-293 clonal cells expressing hGCGR, 0.1% bovine casein, without or with 1.0% human serum albumin
T1 construct: expressed in transfected cells
Method in brief: (§1)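 Readings of the HTRF 665/620 nm ratio, which falls as cAMP rises, were converted to nM cAMP using a standard curve after 30 min peptide exposure at 37° C.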

hGIPR = target: T2, hGIPR (Homo sapiens, UniProt P48546); experiment: Functional cAMP formation (HTRF) in HEK-293 clonal cells expressing hGIPR, 0.1% bovine casein, without or with 1.0% human serum albumin; settings: for Emax: percent of maximal response to GIP(1-42)NH2; for EC50: cAMP, 0.1% bovine casein (no human serum albumin), geometric mean
T2 construct: expressed in transfected cells
T2 sequence (P48546 22-466): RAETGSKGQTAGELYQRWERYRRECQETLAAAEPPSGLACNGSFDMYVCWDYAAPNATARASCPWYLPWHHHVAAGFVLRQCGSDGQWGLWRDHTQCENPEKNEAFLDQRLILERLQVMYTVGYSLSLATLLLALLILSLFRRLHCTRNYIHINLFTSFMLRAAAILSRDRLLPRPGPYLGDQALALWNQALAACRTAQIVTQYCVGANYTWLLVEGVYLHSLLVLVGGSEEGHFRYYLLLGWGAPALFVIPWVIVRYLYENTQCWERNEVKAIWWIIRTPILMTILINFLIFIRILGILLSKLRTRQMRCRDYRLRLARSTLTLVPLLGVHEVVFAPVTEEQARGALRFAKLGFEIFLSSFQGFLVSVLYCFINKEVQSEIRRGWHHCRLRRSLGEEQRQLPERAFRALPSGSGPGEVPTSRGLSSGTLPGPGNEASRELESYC
Method in brief: as §1

hGLP-1R = hGLP-1R (Homo sapiens, UniProt P43220); experiment: Functional cAMP formation (HTRF) in HEK-293 clonal cells expressing hGLP-1R, 0.1% bovine casein, without or with 1.0% human serum albumin; design: expressed in transfected cells
Method in brief: as §1

[1] = hGCGR EC50, nM (SEM, n), 0.1% bovine casein and 1.0% human serum albumin, 37° C., geometric mean
[2] = hGCGR EC50, nM (SEM, n), cAMP, 37° C., 0.1% bovine casein (no human serum albumin), geometric mean
[3] = HEK293, read-out: hGIPR Emax, % ± SEM, 0.1% bovine casein and 1.0% human serum albumin, 37° C.
[4] = hGIPR EC50, nM (SEM, n), 37° C.
[5] = hGLP-1R EC50, nM (SEM, n), cAMP, 37° C., 0.1% bovine casein (no human serum albumin), geometric mean

Sequence of hGLP-1R (P43220 24-463): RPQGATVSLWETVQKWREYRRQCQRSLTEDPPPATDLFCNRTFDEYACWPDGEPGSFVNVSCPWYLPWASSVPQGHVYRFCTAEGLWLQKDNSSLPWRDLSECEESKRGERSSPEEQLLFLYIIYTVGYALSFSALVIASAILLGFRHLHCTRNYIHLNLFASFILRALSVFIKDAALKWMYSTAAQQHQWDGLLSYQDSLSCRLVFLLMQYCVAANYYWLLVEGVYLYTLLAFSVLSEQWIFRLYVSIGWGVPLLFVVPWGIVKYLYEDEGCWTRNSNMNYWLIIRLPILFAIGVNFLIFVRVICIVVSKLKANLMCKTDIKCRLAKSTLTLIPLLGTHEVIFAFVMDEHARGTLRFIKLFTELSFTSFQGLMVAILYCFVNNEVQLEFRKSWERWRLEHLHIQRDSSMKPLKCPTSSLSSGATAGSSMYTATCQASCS
T1 sequence (P47871 26-477): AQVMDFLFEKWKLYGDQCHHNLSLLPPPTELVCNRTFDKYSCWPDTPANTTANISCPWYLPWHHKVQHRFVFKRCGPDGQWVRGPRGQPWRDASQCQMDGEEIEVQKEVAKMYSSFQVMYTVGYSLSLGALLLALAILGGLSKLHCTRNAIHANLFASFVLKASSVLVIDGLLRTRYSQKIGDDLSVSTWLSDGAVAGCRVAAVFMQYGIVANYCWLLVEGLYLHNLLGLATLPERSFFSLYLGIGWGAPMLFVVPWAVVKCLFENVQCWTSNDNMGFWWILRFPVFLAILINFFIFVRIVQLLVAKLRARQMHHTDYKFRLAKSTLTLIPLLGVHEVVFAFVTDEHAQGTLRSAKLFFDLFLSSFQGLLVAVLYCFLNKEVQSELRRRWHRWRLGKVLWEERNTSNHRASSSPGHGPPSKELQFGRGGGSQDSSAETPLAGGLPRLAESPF

CC[C@H](C)[C@H](NC(=O)[C@H](CCCN)NC(=O)[C@H](CC(=O)O)NC(=O)[C@H](CC(C)C)NC(=O)[C@](C)(CC(C)C)NC(=O)[C@@H](NC(=O)[C@H](CO)NC(=O)[C@H](CCc1ccc(O)cc1)NC(=O)[C@H](CC(=O)O)NC(=O)[C@H](CO)NC(=O)[C@@H](NC(=O)[C@](C)(Cc1ccccc1F)NC(=O)[C@@H](NC(=O)CNC(=O)[C@H](CCC(=O)O)NC(=O)C(C)(C)NC(=O)[C@@H](N)Cc1ccc(O)cc1)[C@@H](C)O)[C@@H](C)O)[C@@H](C)CC)C(=O)N[C@@H](C)C(=O)N[C@@H](CCC(N)=O)C(=O)NC(C)(C)C(=O)N[C@@H](CCC(=O)O)C(=O)N[C@@H](Cc1ccccc1)C(=O)N[C@H](C(=O)N[C@@H](CCCCNC(=O)COCCOCCNC(=O)COCCOCCNC(=O)CC[C@H](NC(=O)CCCCCCCCCOc1ccc(C(=O)O)cc1)C(=O)O)C(=O)N[C@@](C)(Cc1ccc(O)cc1)C(=O)N[C@@H](CC(C)C)C(=O)N[C@H](C(=O)N[C@@H](CCCCNC(=O)COCCOCCNC(=O)COCCOCCNC(=O)CC[C@H](NC(=O)CCCCCCCCCOc1ccc(C(=O)O)cc1)C(=O)O)C(=O)NCC(=O)NCC(=O)N1CCC[C@H]1C(=O)N[C@@H](CO)C(=O)N[C@@H](CO)C(=O)NCC(=O)N[C@@H](C)C(=O)N1CCC[C@H]1C(=O)N1CCC[C@H]1C(=O)N1CCC[C@H]1C(=O)N[C@@H](CO)C(N)=O)[C@@H](C)CC)[C@@H](C)CC [Example 310]
EC50 (hGCGR; [1]): > 9950 nM | EC50 (hGCGR; [2]): > 9950 nM | Emax (hGIPR; [3]): 83.9% | EC50 (hGIPR; [4]): 0.025 nM | Emax (hGLP-1R; HEK293, read-out: hGLP-1R Emax, % ± SEM, cAMP, 37° C., 0.1% bovine casein, percent of maximal response to GLP-1(7-36)NH2, arithmetic mean): 105% | EC50 (hGLP-1R; [5]): 0.347 nM

CC[C@H](C)[C@H](NC(=O)[C@H](CC(C)C)NC(=O)[C@](C)(Cc1ccc(O)cc1)NC(=O)[C@@H](CCC(=O)O)NC(=O)[C@@H](NC(=O)[C@H](Cc1ccccc1)NC(=O)[C@H](CCC(=O)O)NC(=O)C(C)(C)NC(=O)[C@H](CCC(N)=O)NC(=O)[C@H](C)NC(=O)[C@H](CCCCNC(=O)COCCOCCNC(=O)COCCOCCNC(=O)CC[C@H](NC(=O)CCCCCCCCCOc1ccc(C(=O)O)cc1)C(=O)O)NC(=O)[C@H](CCCN)NC(=O)[C@H](CC(=O)O)NC(=O)[C@H](CC(C)C)NC(=O)[C@](C)(CC(C)C)NC(=O)[C@@H](NC(=O)[C@H](CO)NC(=O)[C@H](CCc1ccc(O)cc1)NC(=O)[C@H](CC(=O)O)NC(=O)[C@H](CO)NC(=O)[C@@H](NC(=O)[C@](C)(Cc1ccccc1F)NC(=O)[C@@H](NC(=O)CNC(=O)[C@H](CCC(=O)O)NC(=O)C(C)(C)NC(=O)[C@@H](N)Cc1ccc(O)cc1)[C@@H](C)O)[C@@H](C)O)[C@@H](C)CC)[C@@H](C)CC)C(=O)N[C@@H](CCCCNC(=O)COCCOCCNC(=O)COCCOCCNC(=O)CC[C@H](NC(=O)CCCCCCCCCOc1ccc(C(=O)O)cc1)C(=O)O)C(=O)NCC(=O)NCC(=O)N1CCC[C@H]1C(=O)N[C@@H](CO)C(=O)N[C@@H](CO)C(=O)NCC(=O)N[C@@H](C)C(=O)N1CCC[C@H]1C(=O)N1CCC[C@H]1C(=O)N1CCC[C@H]1C(=O)N[C@@H](CO)C(N)=O [Example 327]
EC50 (hGCGR; [2]): > 9950 nM | EC50 (hGCGR; hGCGR EC50, nM (SEM, n), cAMP, 37° C., 0.1% bovine casein and 1.0% human serum albumin, geometric mean (SEM, n)): > 9950 nM | Emax (hGIPR; HEK293, read-out: hGIPR Emax, % ± SEM, cAMP, 37° C., 0.1% bovine casein and 1.0% human serum albumin): 90.2% | EC50 (hGIPR; [4]): 0.018 nM | EC50 (hGLP-1R; [5]): 0.211 nM | EC50 (hGLP-1R; hGLP-1R EC50, nM (SEM, n), cAMP, 37° C., 0.1% bovine casein and 1.0% human serum albumin, geometric mean (SEM, n)): 13.6 nM

CC[C@H](C)[C@H](NC(=O)[C@H](CC(C)C)NC(=O)[C@](C)(Cc1ccc(O)cc1)NC(=O)[C@@H](CCC(=O)O)NC(=O)[C@@H](NC(=O)[C@H](Cc1ccccc1)NC(=O)[C@H](CCCCNC(=O)COCCOCCNC(=O)COCCOCCNC(=O)CC[C@H](NC(=O)CCCCCCCCCOc1ccc(C(=O)O)cc1)C(=O)O)NC(=O)C(C)(C)NC(=O)[C@H](CCC(N)=O)NC(=O)[C@H](C)NC(=O)[C@H](CCCCNC(=O)COCCOCCNC(=O)COCCOCCNC(=O)CC[C@H](NC(=O)CCCCCCCCCOc1ccc(C(=O)O)cc1)C(=O)O)NC(=O)[C@H](CCCN)NC(=O)[C@H](CC(=O)O)NC(=O)[C@H](CC(C)C)NC(=O)[C@](C)(CC(C)C)NC(=O)[C@@H](NC(=O)C(C)(C)NC(=O)[C@H](Cc1ccc(O)cc1)NC(=O)[C@H](CC(=O)O)NC(=O)[C@H](CO)NC(=O)[C@@H](NC(=O)[C@](C)(Cc1ccccc1F)NC(=O)[C@@H](NC(=O)CNC(=O)[C@H](CCC(=O)O)NC(=O)C(C)(C)NC(=O)[C@@H](N)Cc1ccc(O)cc1)[C@@H](C)O)[C@@H](C)O)[C@@H](C)CC)[C@@H](C)CC)C(=O)N[C@@H](CCC(=O)O)C(=O)NCC(=O)NCC(=O)N1CCC[C@H]1C(=O)N[C@@H](CO)C(=O)N[C@@H](CO)C(=O)NCC(=O)N[C@@H](C)C(=O)N1CCC[C@H]1C(=O)N1CCC[C@H]1C(=O)N1CCC[C@H]1C(=O)N[C@@H](CO)C(N)=O [Example 236]
EC50 (hGCGR; [1]): > 9950 nM | EC50 (hGCGR; hGCGR EC50, nM (SEM, n), cAMP, incubated at 37° C., 0.1% bovine casein (no human serum albumin), geometric mean): > 9950 nM | Emax (hGIPR; [3]): 80.5% | EC50 (hGIPR; hGIPR EC50, nM (SEM, n), incubated at 37° C.): 0.0154 nM | Emax (hGLP-1R; HEK293, read-out: hGLP-1R Emax, % ± SEM, 0.1% bovine casein and 1.0% human serum albumin, 37° C., percent of maximal response to GLP-1(7-36)NH2): 125% | Emax (hGLP-1R; HEK293, read-out: hGLP-1R Emax, % ± SEM, percent of maximal response to GLP-1(7-36)NH2, 37° C., 0.1% bovine casein, arithmetic mean): 96.5% | EC50 (hGLP-1R; hGLP-1R EC50, nM (SEM, n), 0.1% bovine casein and 1.0% human serum albumin, 37° C., geometric mean): 32.6 nM | EC50 (hGLP-1R; hGLP-1R EC50, nM (SEM, n), cAMP, incubated at 37° C., 0.1% bovine casein (no human serum albumin), geometric mean): 0.336 nM

CC[C@H](C)[C@H](NC(=O)[C@H](CCCN)NC(=O)[C@H](CC(=O)O)NC(=O)[C@H](CC(C)C)NC(=O)[C@](C)(CC(C)C)NC(=O)[C@@H](NC(=O)[C@H](CO)NC(=O)[C@H](Cc1ccc(OC)cc1)NC(=O)[C@H](CC(=O)O)NC(=O)[C@H](CO)NC(=O)[C@@H](NC(=O)[C@](C)(Cc1ccccc1F)NC(=O)[C@@H](NC(=O)CNC(=O)[C@H](CCC(=O)O)NC(=O)C(C)(C)NC(=O)[C@@H](N)Cc1ccc(O)cc1)[C@@H](C)O)[C@@H](C)O)[C@@H](C)CC)C(=O)N[C@@H](C)C(=O)N[C@@H](CCC(N)=O)C(=O)NC(C)(C)C(=O)N[C@@H](CCCCNC(=O)COCCOCCNC(=O)COCCOCCNC(=O)CC[C@H](NC(=O)CCCCCCCCCCCCC(=O)O)C(=O)O)C(=O)N[C@@H](Cc1ccccc1)C(=O)N[C@H](C(=O)N[C@H](CCC(=O)O)C(=O)N[C@@](C)(Cc1ccc(O)cc1)C(=O)N[C@@H](CC(C)C)C(=O)N[C@H](C(=O)N[C@@H](CCC(=O)O)C(=O)NCC(=O)NCC(=O)N1CCC[C@H]1C(=O)N[C@@H](CO)C(=O)N[C@@H](CO)C(=O)NCC(=O)N[C@@H](C)C(=O)N1CCC[C@H]1C(=O)N1CCC[C@H]1C(=O)N1CCC[C@H]1C(=O)N[C@@H](CO)C(=O)N[C@@H](CCCCNC(=O)COCCOCCNC(=O)COCCOCCNC(=O)CC[C@H](NC(=O)CCCCCCCCCCCCC(=O)O)C(=O)O)C(N)=O)[C@@H](C)CC)[C@@H](C)CC [Example 264] (H-Y[Aib]EGT[αMePhe(2-F)]TSDY(Me)SI[αMeL]LD[Orn]IAQ[Aib]K([AEEA-AEEA-γGlu-C14 diacid])FI[dE][αMeY]LIEGGPSSGAPPPSK([AEEA-AEEA-γGlu-C14 diacid])-NH2)
EC50 (hGCGR; 0.1% bovine casein and 1.0% human serum albumin, 37° C., geometric mean, read-out: hGCGR EC50, nM (SEM, n)): > 9950 nM | EC50 (hGCGR; cAMP, 37° C., 0.1% bovine casein (no human serum albumin), geometric mean, read-out: hGCGR EC50, nM (SEM, n)): > 9950 nM | Emax (hGIPR; HEK293, 0.1% bovine casein and 1.0% human serum albumin, 37° C., read-out: hGIPR Emax, % ± SEM): 84.4% | Emax (hGIPR; HEK293, cAMP, 37° C., 0.1% bovine casein, arithmetic mean, read-out: hGIPR Emax, % ± SEM): 114% | EC50 (hGIPR; 37° C., read-out: hGIPR EC50, nM (SEM, n)): 0.0208 nM | Emax (hGLP-1R; HEK293, 0.1% bovine casein and 1.0% human serum albumin, 37° C., percent of maximal response to GLP-1(7-36)NH2, read-out: hGLP-1R Emax, % ± SEM): 105% | Emax (hGLP-1R; HEK293, cAMP, 37° C., 0.1% bovine casein, percent of maximal response to GLP-1(7-36)NH2, arithmetic mean, read-out: hGLP-1R Emax, % ± SEM): 113% | EC50 (hGLP-1R; cAMP, 37° C., 0.1% bovine casein (no human serum albumin), geometric mean, read-out: hGLP-1R EC50, nM (SEM, n)): 0.413 nM
